Reference: patent US20140094465A1, “Compounds as S-Nitrosoglutathione Reductase Inhibitors” (N30 PHARMACEUTICALS, INC., priority 2011, published 2014)

Assays:
[1] = tested on: ovalbumin (OVA)-induced asthma; test: Mouse model of ovalbumin (OVA)-induced asthma (Penh, eosinophil infiltrate in BALF); type: in vivo; settings: for decrease of eosinophil infiltration in BAL: three oral doses of 10 mg/kg at 48 h, 24 h, and 1 h prior to assessment
Procedure: A mouse model of ovalbumin (OVA)-induced asthma was used to screen GSNOR inhibitors for efficacy against methacholine (MCh)-induced bronchoconstriction/airway hyper-responsiveness. This is a widely used and well characterized model that presents with an acute, allergic asthma phenotype with similarities to human asthma. Efficacy of GSNOR inhibitors was assessed using a protocol in which GSNOR inhibitors were administered after OVA sensitization and airway challenge, and prior to challenge with MCh. Bronchoconstriction in response to challenge with increasing doses of MCh was assessed using whole body plethysmography (Penh; Buxco). The amount of eosinophil infiltrate into the bronchoaveolar lavage fluid (BALF) was also determined as a measure of lung inflammation. The effects of GSNOR inhibitors were compared to vehicles and to Combivent (inhaled; IH) as the positive control.
OVA (500 μg/ml) in PBS was mixed with equal volumes of 10% (w/v) aluminum potassium sulfate in distilled water and incubated for 60 min. at room temperature after adjustment to pH 6.5 using 10 N NaOH. After centrifugation at 750×g for 5 min, the OVA/alum pellet was resuspended to the original volume in distilled water. Mice received an intraperitoneal (IP) injection of 100 μg OVA (0.2 mL of 500 μg/mL in normal saline) complexed with alum on day 0. Mice were anesthetized by IP injection of a 0.2-mL mixture of ketamine and xylazine (0.44 and 6.3 mg/mL, respectively) in normal saline and were placed on a board in the supine position. Two hundred fifty micrograms (100 μl of a 2.5 mg/ml) of OVA (on day 8) and 125 μg (50 μl of 2.5 mg/ml) OVA (on days 15, 18, and 21) were placed on the back of the tongue of each animal.
In vivo airway responsiveness to methacholine was measured 24 h after the last OVA challenge in conscious, freely moving, spontaneously breathing mice with whole body plethysmography using a Buxco chamber (Wilmington, N.C.). Mice were challenged with aerosolized saline or increasing doses of methacholine (5, 20, and 50 mg/mL) generated by an ultrasonic nebulizer for 2 min. The degree of bronchoconstriction was expressed as enhanced pause (Penh), a calculated dimensionless value, which correlates with the measurement of airway resistance, impedance, and intrapleural pressure in the same mouse. Penh readings were taken and averaged for 4 min. after each nebulization challenge. Penh is calculated as follows: Penh=[(Te/Tr−1)×(PEF/PIF)], where Te is expiration time, Tr is relaxation time, PEF is peak expiratory flow, and PIF is peak inspiratory flow×0.67 coefficient. The time for the box pressure to change from a maximum to a user-defined percentage of the maximum represents the relaxation time. The Tr measurement begins at the maximum box pressure and ends at 40%.
After measurement of airway hyper-reactivity, the mice were exsanguinated by cardiac puncture, and then BALF was collected from either both lungs or from the right lung after tying off the left lung at the mainstem bronchus. Total BALF cells were counted from a 0.05 mL aliquot, and the remaining fluid was centrifuged at 200×g for 10 min at 4° C. Cell pellets were resuspended in saline containing 10% BSA with smears made on glass slides. Eosinophils were stained for 5 min. with 0.05% aqueous eosin and 5% acetone in distilled water, rinsed with distilled water, and counterstained with 0.07% methylene blue. Alternatively, eosinophils and other leukocytes were stained with DiffQuik.
GSNOR inhibitors were reconstituted in phosphate buffered saline (PBS), pH 7.4, or 0.5% w/v carboxy methylcellulose at concentrations ranging from 0.00005 to 3 mg/mL. GSNOR inhibitors were administered to mice (10 mL/kg) as a single dose or multiple dose either intravenously (IV) or orally via gavage. Dosing was performed from 30 min. to 72 h prior to MCh challenge. Effects of GSNOR inhibitors were compared to vehicle dosed in the same manner.
Combivent was used as the positive control in all studies. […]

[2] = tested on: cigarette smoke-induced COPD; test: Subchronic (11 day) cigarette smoke exposure COPD model; type: in vivo, mouse; settings: subchronic 11 day model
Procedure: Infiltration of inflammatory cells into the bronchoalveolar lavage fluid (BALF) and BALF levels of chemokines involved in inflammation and tissue turnover/repair were measured to assess the influences of GSNOR inhibitors on some of the early events associated with the initiation and progression of COPD. […] In animal models, changes in lung pathology are only evident after extended (several months) duration of exposure to cigarette smoke, thus making chronic models prohibitive as effective screening tools. […] The key roles of inflammation in the initiation and progression of COPD, make these short duration models relevant for initial tests of efficacy of novel therapeutics. Female C57Bl/6 mice (N=10 per group) were exposed to cigarette smoke generated from Marlboro 100 cigarettes without filters. Exposure times were 25 min. on study day 1, 35 min. on study day 2, and 45 min. on study days 3 to 11. GSNOR inhibitors were administered one hour prior to smoke exposure on each day. GSNOR inhibitors were dosed orally at 1 to 10 mg/kg/day for 11 days. […] The effect of GSNOR inhibitors were compared to vehicle treated controls and expressed as percent inhibition of the cigarette smoke induced increases in BALF cell numbers. Roflumilast was used as the positive control for the study and was dosed at 5 mg/kg/day. A group of naïve mice (N=10) was exposed to air and dosed with vehicle as a negative control for the study.

[3] = single oral dose of 10 mg/kg at 24 h prior to assessment

O=C(O)c1ccc(-c2ccc3cc(O)ccc3c2)c(F)c1 [III-2]
decrease of eosinophil infiltration in BAL [1]: 44 % of vehicle control

O=c1c(-c2ccc(-c3nnn[nH]3)cc2)c(C(F)(F)F)oc2cc(O)ccc12 [IV-23]
decrease of AUC for Penh ([1]; single IV dose of 10 mg/kg at 24 h prior to assessment): 39 % of vehicle control

O=c1c2ccc(O)cc2oc(C(F)(F)F)c1[C@H]1CC[C@H](C(=O)O)CC1 [IV-25]
inhibition of smoke-induced increase in eosinophils in BALF ([2]; oral 10 mg/kg/day for 11 days): 57% | inhibition of smoke-induced increase in lymphocytes in BALF ([2]; oral 10 mg/kg/day for 11 days): 24% | inhibition of smoke-induced increase in macrophages in BALF ([2]; oral 10 mg/kg/day for 11 days): 28% | inhibition of smoke-induced increase in neutrophils in BALF ([2]; oral 10 mg/kg/day for 11 days): 25% | inhibition of smoke-induced increase in total cells in BALF ([2]; oral 10 mg/kg/day for 11 days): 26% | decrease of AUC for Penh [1, 3]: 43 % of vehicle control | decrease of eosinophil infiltration into BALF [1, 3]: 42 % of vehicle control | decrease of eosinophil infiltration in BAL [1]: 12 % of vehicle control

O=c1[nH]c(-c2ccc(-c3c(C(F)(F)F)oc4cc(O)ccc4c3=O)cc2)no1 [IV-31]
decrease of AUC for Penh [1, 3]: 18 % of vehicle control | decrease of eosinophil infiltration into BALF [1, 3]: 82 % of vehicle control

O=C(O)c1ccc(-c2c(C(F)(F)F)oc3cc(O)ccc3c2=O)c(F)c1 [IV-38]
inhibition of smoke-induced increase in lymphocytes in BAL ([2]; oral 1 mg/kg/day for 11 days): 62% | inhibition of smoke-induced increase in macrophages in BAL ([2]; oral 1 mg/kg/day for 11 days): 44% | inhibition of smoke-induced increase in neutrophils in BAL ([2]; oral 1 mg/kg/day for 11 days): 68% | inhibition of smoke-induced increase in total cells in BAL ([2]; oral 1 mg/kg/day for 11 days): 53% | effects compared with roflumilast ([2]; roflumilast 5 mg/kg/day): comparable to those of roflumilast | decrease of eosinophil infiltration in BAL [1]: 36 % of vehicle control
